In patent US10738071B2, “Polymorphic forms of sofosbuvir” (Mylan Laboratories Limited, priority 2016, dated 2020):

Experiment: physical and chemical stability of sofosbuvir form-M3 on storage (water content, PXRD, HPLC purity)
Assay type: physicochemical
Description: The crystalline sofosbuvir form-M3 disclosed herein may be characterized by X-ray powder diffraction. Therefore, samples of crystalline sofosbuvir form-M3 were analyzed on a PANalytical, X'pert PRO powder diffractometer equipped with goniometer of θ/θ configuration and X'Celerator detector. The Cu-anode X-ray tube was operated at 40 kV and 30 mA. The experiments were conducted over the 2θ range of 2.0°-50.0°, 0.030° step size and 50 seconds step time.
Water content was determined on an 841 Titrando Karl-Fischer titrator (Metrohm) by placing 40 mL dehydrated methanol in the titration vessel and titrating with a standardized reagent to reach the electrometric endpoint. A sample (e.g., 0.20 g sofosbuvir form-M3) was added, the mixture was stirred for 1 minute, then titrated to the endpoint with a Karl-Fischer reagent. For each determination, fresh methanol was used. The following calculations may be used to determine water content of each sample:
The physical and chemical stability of sofosbuvir form-M3 was determined by storing the samples at 25±2° C./60±5% relative humidity (RH) and at 40±2° C./75±5% RH for 6 months. The samples were tested to determine water content, detect degradation crystalline form by PXRD analysis, and measure purity by HPLC analysis. HPLC analysis was performed by the parameters listed below:
Chromatographic Conditions:
Injection volume: 20.0 μL
Column oven temperature: 45° C.
Sample temperature: 10° C.
Acquisition time: 25 minutes
Water: Acetonitrile (80:20) % v/v
As an example, Table 1 below discloses data collected on sofosbuvir form-M3 under various storage conditions.

[1] = stored at 25 ± 2° C./60 ± 5% RH, 1 months
[2] = stored at 25 ± 2° C./60 ± 5% RH, 2 months
[3] = stored at 25 ± 2° C./60 ± 5% RH, 3 months
[4] = stored at 25 ± 2° C./60 ± 5% RH, 6 months
[5] = stored at 25 ± 2° C./60 ± 5% RH, Initial
[6] = stored at 40 ± 2° C./75 ± 5% RH, 1 months
[7] = stored at 40 ± 2° C./75 ± 5% RH, 2 months
[8] = stored at 40 ± 2° C./75 ± 5% RH, 3 months
[9] = stored at 40 ± 2° C./75 ± 5% RH, 6 months
[10] = stored at 40 ± 2° C./75 ± 5% RH, Initial
[11] = up to six months at 25±2° C./60±5% RH and at 40±2° C./75±5% RH

With `CC(C)OC(=O)[C@H](C)N[P@](=O)(OC[C@H]1O[C@@H](n2ccc(=O)[nH]c2=O)[C@](C)(F)[C@@H]1O)Oc1ccccc1` [sofosbuvir form-M3, (S)-isopropyl 2-((S)-(((2R,3R,4R,5R)-5-(2,4-dioxo3,4-dihydropyrimidin-1(2H)-yl)-4-fluoro-3-hydroxy-4-methyltetrahydrofuran-2yl)methoxy)-(phenoxy)phosphorylamino)propanoate] the “HPLC Purity” value [1] was 99.90%, the PXRD [1] was “form-M3” and the Water content [1] was 3.39%. For the same molecule, the “HPLC Purity” value [2] was 99.90%, the PXRD [2] was “form-M3” and the Water content [2] was 3.45%. For the same molecule, the “HPLC Purity” value [3] was 99.89%, the PXRD [3] was “form-M3” and the Water content [3] was 3.35%. For the same molecule, the “HPLC Purity” value [4] was 99.92%, the PXRD [4] was “form-M3” and the Water content [4] was 3.34%. For the same molecule, the “HPLC Purity” value [5] was 99.92%, the PXRD [5] was “form-M3” and the Water content [5] was 3.59%. The “HPLC Purity” value [6] was 99.90%, the PXRD [6] was “form-M3” and the Water content [6] was 3.55%. For the same molecule, the “HPLC Purity” value [7] was 99.90%, the PXRD [7] was “form-M3” and the Water content [7] was 3.33%. For the same molecule, the “HPLC Purity” value [8] was 99.89%, the PXRD [8] was “form-M3” and the Water content [8] was 3.19%. For the same molecule, the “HPLC Purity” value [9] was 99.91%, the PXRD [9] was “form-M3” and the Water content [9] was 3.00%. For the same molecule, the “HPLC Purity” value [10] was 99.92%, the PXRD [10] was “form-M3” and the Water content [10] was 3.59%. The “change in PXRD pattern on storage” value [11] was “no significant change in PXRD pattern”, the “change in moisture content on storage” value [11] was “no significant change in moisture content” and the “change in purity on storage” value [11] was “no significant change in purity”.
